The results in this text go back to patent publication US7001746B1, “Methods and compositions for the differentiation of human preadipocytes into adipocytes” (Artecel Sciences, Inc., priority 1999, dated 2006).

For assay [1], the system named is human preadipocytes. The assay is described as follows: Differentiation of human preadipocytes to adipocytes, Oil Red O staining (Example 2). The format is cell-based. To be noted: Adipocyte, in differentiation medium, read-out: concentration that allows for half maximal stimulation of differentiation.
Description: Preadipocytes from the stroma-vascular fraction were resuspended in preadipocyte medium (DME-Ham's F-10, 1:1 (v/v), 10% FBS, and penicillin-streptomycin-fungizone) and plated at 25,000 cells/well in each of the wells of a 96 well plate (150 μl/well). The cells were then placed in a 37° C. 5% CO2 incubator and allowed to settle overnight. The following day, all of the medium was removed and replaced with 150 μl differentiation medium (Dulbecco's Modified Eagle Medium/Ham's F-10 Nutrient Broth (1:1, vol/vol), 15 mM HEPES buffer, pH 7.4, 33 μM biotin, 17 μM pantothenate, 0.2 mM isobutylmethylxanthine, 100 nM insulin, 1 μM dexamethasone, 1 μM BRL 49653 (diluted into medium from a 100× DMSO stock solution), 10% (vol/vol) fetal bovine serum, 60 U/l streptomycin, 60 U/l penicillin and 25 μg/l Fungizone). The cells were maintained on differentiation medium for 3 days. Additional differentiation medium was added as necessary to maintain the proper volume.
120 μl of the medium was removed, taking care to leave a 30 μl layer over the cell surface to prevent the maturing adipocytes from lifting off of the plate surface due to the surface tension created by removal of all the fluid. […]
(§1) Isopropanol (100 μl/well) was then added and the plate was incubated at room temperature for 10 minutes. […] The optical density was measured at 500 nm. […]
The subject of assay [2] is human preadipocytes. To be noted: 1 μM BRL49653.
Description: The following procedure was used to determine the amount of lipid that had accumulated in the adipocytes. 120 μl/well of medium was removed from each well of the 96-well plates. Care was taken to prevent drying of the wells. 100 μl/well fixer solution (7% formaldehyde in PBS) was added and the plate was incubated at room temperature for at lease 2 hours. Oil Red O working solution was prepared by adding 4 ml distilled water to 6 ml Oil Red O stock solution (1% Oil Red O in isopropanol). The working solution was incubated for 20 minutes at room temperature and then filtered through Nalgene 0.8 μm filter wear. All of the fixer was removed by aspiration until wells were completely dry.
The cells were then incubated with 40 μl/well Oil Red O working solution at room temperature for 10-15 minutes. Care was taken not to touch the sides of the wells in order to prevent high background due to dye stuck on the wall of the well. The plate was covered during incubation to prevent evaporation. Following this incubation, all of the Oil Red O solution was removed and the cells were washed four times with 200 μl/well distilled water. […]
as §1
The test system of assay [3] is differentiated adipocytes. Put plainly: Lipolysis in differentiated human adipocytes, glycerol release (Example 5). The format is cell-based. To be noted: increasing concentrations, 4 hours, adipocytes from five patients; FIG. 6. As for the experimental part: Preadipocytes from 5 individual patients were isolated and differentiated into adipocytes as described herein. A 96-well plate of adipocytes differentiated by the method in Example 1 was prepared. After 21 days from plating, the cells were washed in Krebs-Ringer buffer and treated with increasing concentrations of isoproterenol. The positive and negative controls (0.5 μM isoproterenol in KRB and KRB alone, respectively) were added in duplicate. The plates were then incubated at 37° C. for four hours.
When lipolytic agents stimulate adipocytes, triglycerides are converted to glycerol and fatty acids. Lipolytic rate was measured in this example by measuring the glycerol released in the medium. At the end of the incubation time, conditioned medium (100 μl) from each well was transferred into a new plate. Glycerol standards (1 mM, 0.5 mM, 0.25 mM, 0.1 mM, 0.05 mM, 0.025 mM, 0 mM) were included.
Glycerol assay reagent (100 μl; Sigma glycerol assay kit) was added to each well. The solutions were mixed well and incubated at room temperature for 15 minutes and then the optical density of each well was read at 540 nm.

As to `CN(CCOc1ccc(CC2SC(=O)NC2=O)cc1)c1ccccn1` (stereo not drawn) [BRL49653], in the assay on human preadipocytes [1], the EC50 came to 50 nM. For the same compound, in the assay on human preadipocytes [2], the differentiation stood at 100%.

With `CC(C)NCC(O)c1ccc(O)c(O)c1` (stereo not drawn) [isoproterenol], the “stimulation of lipolysis (glycerol release)” value in assay [3] is on record as “dose-dependently stimulate lipolysis”.
